Results published in patent US11401303B2, “Synthetic peptide BRAP and application in preparation of anti-inflammatory drug for COVID-19 thereof” (TAIAN CITY QIHANG BIOTECHNOLOGY CO., priority 2020, dated 2022).
“Also recorded” adds a separate entry of the source. Ends that are not written are not given here.

Test system: LPS-induced acute lung injury
Assay: LPS-induced acute lung injury in mice, HE pathological examination of lung tissues
Format: in vivo, Balb/C mice
Conditions: LPS 5 mg/kgBW i.p.
Description: 1. Grade-SPF male Balb/C mice, body weight: 20±2 g, and n=48
3. Grouping and treatment: mice were randomly divided into 8 groups (A-H), 6 pcs./group;
3-1: 3 different treatments were given for 3 consecutive days respectively before modeling:
A. normal control group: normal saline was injected via the tail vein for once/day;
B. LPS model group: normal saline was injected via the tail vein for once/day;
C. model sp2 administration group: sp2 (16 mg/kgBW) was injected via the tail vein for once/day;
D. model high-dose brap administration group: brap (16 mg/kgBW) was injected via the tail vein for once/day;
E. model medium-dose brap administration group: brap (8 mg/kgBW) was injected via the tail vein for once/day;
F. model low-dose brap administration group: brap (4 mg/kgBW) was injected via the tail vein for once/day;
G. model brap intranasal administration group: brap (3 mM) was administered nasal administration on both sides, 15 μl/each side; once a day;
H. model dexamethasone administration group (a positive control group): dexamethasone, DEX, 5 mg/kg was injected intraperitoneally for once a day.
Animals from groups A-H were continuously administered the above treatments for 30 min respectively, then group A was intraperitoneally injected isopyknic normal saline, and other groups were intraperitoneally injected LPS 5 mg/kgBW.
1. Tissue section and extending
2. Tissues were dewaxed and hydrated.
3. Tissues were dyed with a hematoxylin stain for 5-20 min (adjusted according to different tissues and experimental requirements), and washed by tap water.
4. Then, tissues were differentiated by a differentiation solution for 30 s.
5. Tissues were soaked by tap water for 15 min or warm water (about 50° C.) for 5 min.
6. Tissues were put in an Eosin stain for 2 min (adjusted according to different tissues and experimental requirements), and washed by tap water.
7. Then, the tissues were soaked by tap water for 5 min.
8. Dehydration by gradient alcohol: Tissues were dehydrated by 95%, 100% I, and 100% II for 1 min each;
9. Transparency by xylene: tissues were subjected to xylene I and II for 10 min.
10. Neutral balsam mounting.
11. Then, it was put and dried in an oven at 60° C., and observed under microscope.

RVLNGPEAPA [brap]
Lung tissue pathology (HE) (16 mg/kgBW via tail vein once/day): No abnormality; also recorded: no thickened pulmonary septum and no obvious inflammatory cell infiltration
Lung tissue pathology (HE) (intranasal 3 mM, 15 μl/each side once a day): no obvious abnormality
Lung tissue pathology (HE) (medium and low dose, 8 and 4 mg/kgBW via tail vein once/day): inflammatory cell infiltration begins to appear
